Source: paper PMC7321108, “1-Hydroxyanthraquinones Containing Aryl Substituents as Potent and Selective Anticancer Agents” (Molecules, 2020)

Columns and labels:
[1] = tested on: DU-145 cells; test: Cell cycle analysis by flow cytometry (Hoechst 33342), DU-145; assay type: cell-based, human; conditions: DU-145, treated at GI50 concentration, 24 h
Procedure: We have carried out flow cytometric study of compounds 13, 16 and the isomeric compound 25 (Table 4, Figure 4G,H). Concentrations of 16 and 25 were taken as 5.4 and 14.5 μM, respectively, as per cytotoxic studies (Table 1). After examining the data for 13 (Figure 4G, Table 4), a good number of cells are arrested in Sub-G1, G0/G1 and S phase. Biosynthetic activity is very high during Sub-G1 phase; this is probably achieved by enhancing of apoptosis. The isomeric molecule 25 arrest G0/G1 and S phases, i.e., affecting the DNA synthesis/replication mechanism. Similarly, for 25 a different pattern is observed, i.e., variations at S and G2/M phases were observed, in comparison to the control. […] Some difference in the mechanism of operation of 13 and 25 has been observed during the progression of cell cycle like: Sub-G1 phase was highly disturbed by 13 and S and G0/G1 phases were highly disturbed by 25.
For cell cycle analysis cells were seeded in 6-well plates (30,000 per plate) and incubate for adhesion for 24 h. […] Cells were washed with PBS twice, harvested, pelleted and resuspended in 0.5 mL of PBS. For staining the Hoechst 33342 Ready Flow Reagent (Invitrogen) was used according to the instruction. CytoFLEX flow cytometer (Beckman Coulter) was used for analysis. The results are presented as a percentage of cell population standing in different stages of the cell cycle.

[2] = tested on: pUC19 DNA plasmid; test: Gel retardation (electrophoretic mobility shift) assay; assay type: binding; conditions: 0.5 µg pUC19 plasmid, 0.025 µM test compound, room temperature 1 h, agarose gel 60 V 4 h
Procedure: The interaction of compounds 13, 15, 16, 23, 25 27, 28, 35, 40 and 44 with DNA was experimentally confirmed by study of the electrophoretic mobility. For this the gel retardation assay was performed. Doxorubicin in different concentration was used as a positive control. In order to avoid destruction of the possible complex of DNA with compounds, the electrophoresis was performed at low voltage. The results are presented at Figure 3.
To study the interaction between test compounds and DNA the electrophoretic mobility shift assay was performed. 0.5 µg of pUC19 plasmid was incubated with 0.025 µM of test compounds at room temperature for 1 h. After that the electrophoresis was performed in agarose gel (1/2%) in TBE buffer (60 V, 4 h). For visualization the gel was staining with ethidium bromide and analyzed with Bio-Rad gel documentation system.

[3] = MTT cytotoxicity assay, normal hTERT-immortalized lung fibroblasts; assay type: cell-based; conditions: human, hTERT-immortalized lung fibroblasts (normal cell line), 72 h incubation, mean ± SEM of three experiments, read-out: Cytotoxicity (GI50) against hTERT Lung Fibroblasts
In short: (§1)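 72 h compound exposure (DMSO vehicle), RPMI-1640/10% calf serum, 37 °C, 5% CO2; triplicates. 1% MTT 4 h, DMSO solubilization, OD 450 nm. GI50 = conc. giving 50% cell death / 2-fold OD drop vs untreated wells; mean ± SEM of three independent experiments.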

[4] = tested on: MDA-MB-231 breast cancer cells; test: MTT cytotoxicity assay, MDA-MB-231; assay type: cell-based; conditions: Homo sapiens, 72 h incubation, mean ± SEM of three experiments, read-out: Cytotoxicity (GI50) against MDA-MB-231
In short: as §1

melting point | Structure (SMILES) | Population (% Cell Distribution) G0/G1 [1] | Population (% Cell Distribution) G2/M [1] | Population (% Cell Distribution) S [1] | Population (% Cell Distribution) Sub-G1 [1] | Population (% Cell Distribution) Super-G2 [1] | Retardation of plasmid DNA (electrophoretic mobility) [2] | GI50 at 72 h [3] | GI50 [4]
207.3 °C (dec.) | O=C1c2ccccc2C(=O)c2c(-c3ccccc3)ccc(O)c21 [Compound 13, 1-Hydroxy-4-phenylanthracene-9,10-dione] | 28.7% | 6.3% | 28.7% | 34.6% | 1.6% | cause a retardation of plasmid DNA | 67.1 ± 8.06 µM | 31.2 ± 1.65 µM
213.6 °C (dec.) | COc1cccc(-c2ccc(O)c3c2C(=O)c2ccccc2C3=O)c1OC [Compound 16, 1-(2,3-Dimethoxyphenyl)-4-hydroxyanthracene-9,10-dione] | 44.3% | 7.3% | 30.7% | 15.7% | 2.0% | cause a retardation of plasmid DNA | 48 ± 3.87 µM | 16.5 ± 0.88 µM
